Results as given in patent US20260144788A1, “COMPOUND FOR SHP2 PROTEIN DEGRADATION AND MEDICAL USES THEREOF” (UBIX THERAPEUTICS, INC., priority 2022, published 2026).

Target: T1, SHP2 protein (Homo sapiens, UniProt Q06124)
T1 sequence (Q06124 1-593): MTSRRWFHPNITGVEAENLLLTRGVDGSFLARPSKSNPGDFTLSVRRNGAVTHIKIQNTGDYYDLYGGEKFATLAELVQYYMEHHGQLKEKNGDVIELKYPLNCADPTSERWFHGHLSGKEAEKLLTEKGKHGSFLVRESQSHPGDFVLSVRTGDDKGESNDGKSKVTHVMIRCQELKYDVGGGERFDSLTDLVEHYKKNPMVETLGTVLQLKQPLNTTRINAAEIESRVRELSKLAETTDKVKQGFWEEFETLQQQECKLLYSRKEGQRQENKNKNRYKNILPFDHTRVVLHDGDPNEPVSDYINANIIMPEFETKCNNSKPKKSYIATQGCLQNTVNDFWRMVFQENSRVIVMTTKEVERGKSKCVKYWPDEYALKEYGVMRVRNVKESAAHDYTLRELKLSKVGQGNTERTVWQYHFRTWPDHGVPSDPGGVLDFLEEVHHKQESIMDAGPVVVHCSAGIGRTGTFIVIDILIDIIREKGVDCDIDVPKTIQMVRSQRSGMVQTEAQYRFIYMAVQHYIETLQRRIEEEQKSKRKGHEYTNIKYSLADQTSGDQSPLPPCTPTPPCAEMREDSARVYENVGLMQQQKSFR
Experiment: Measurement of SHP2 protein degradation in NCI-H358 cells (western blotting)
Type: cell-based
Parameters: endogenous in cells; host or cells: NCI-H358
Settings: harvested after 24 hours
Outline: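 H358 cells in RPMI1640/25 mM HEPES/10% FBS, cultured 24 h, then exposed to compound at final 0.001, 0.01 and 0.1 μM for 24 h against a DMSO control. Lysates were normalised for protein by BCA and probed by western blot for SHP2, with GAPDH as loading control.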

Structure (SMILES) | SHP2% degradation (0.01 μM) [%] | SHP2% degradation (0.1 μM) [%]
CC(=O)N[C@H](C(=O)N1C[C@H](O)C[C@H]1C(=O)NCc1ccc(-c2scnc2C)cc1O[C@H]1CC[C@H](C(=O)N2CC(N3CCc4c(Sc5cnc(N6CCC7(CC6)CO[C@@H](C)[C@H]7N)cn5)cccc43)C2)CC1)C(C)(C)C [Example 32, (2S,4R)-1-((S)-2-acetamido-3,3-dimethylbutanoyl)-N-(2-(((1R,4S)-4-(3-(4-((5-((3S,4S)-4-amino-3-methyl-2-oxa-8-azaspiro[4.5]decan-8-yl)pyrazin-2-yl)thio)indolin-1-yl)azetidine-1-carbonyl)cyclohexyl)oxy)-4-(4-methylthiazol-5-yl)benzyl)-4-hydroxypyrrolidine-2-carboxamide] | 54.4 | 98.5
CC(=O)N[C@H](C(=O)N1C[C@H](O)C[C@H]1C(=O)NCc1ccc(-c2scnc2C)cc1O[C@H]1CC[C@H](C(=O)N2CCC(n3cc(F)c4c(Sc5cnc(N6CCC(C)(CN)CC6)cn5)cccc43)CC2)CC1)C(C)(C)C [Example 37, (2S,4R)-1-((S)-2-acetamido-3,3-dimethylbutanoyl)-N-(2-(((1r,4S)-4-(4-(4-((5-(4-(aminomethyl)-4-methylpiperidin-1-yl)pyrazin-2-yl)thio)-3-fluoro-1H-indol-1-yl)piperidine-1-carbonyl)cyclohexyl)oxy)-4-(4-methylthiazol-5-yl)benzyl)-4-hydroxypyrrolidine-2-carboxamide] | 75.8 | 99.
CC(=O)N[C@H](C(=O)N1C[C@H](O)C[C@H]1C(=O)NCc1ccc(-c2scnc2C)cc1OC1CCN(C(=O)C2CCN(c3nccc(Sc4cnc(N5CCC(C)(CN)CC5)c(CO)n4)c3Cl)CC2)CC1)C(C)(C)C [Example 78, (2S,4R)-1-((S)-2-acetamido-3,3-dimethylbutanoyl)-N-(2-((1-(1-(4-((5-(4-(aminomethyl)-4-methylpiperidin-1-yl)-6-(hydroxymethyl)pyrazin-2-yl)thio)-3-chloropyridin-2-yl)piperidine-4-carbonyl)piperidin-4-yl)oxy)-4-(4-methylthiazol-5-yl)benzyl)-4-hydroxypyrrolidine-2-carboxamide] | 98.0 | 99.4
Cc1cc(C(C(=O)N2C[C@H](O)C[C@H]2C(=O)NCc2ccc(-c3scnc3C)cc2O[C@H]2CC[C@H](C(=O)N3CC(Nc4cccc(Sc5cnc(N6CCC(C)(CN)CC6)cn5)c4Cl)C3)CC2)C(C)C)on1 (stereo partly drawn) [Example 115, (2S,4R)—N-(2-(((1R,4S)-4-(3-((3-((5-(4-(aminomethyl)-4-methylpiperidin-1-yl)pyrazin-2-yl)thio)-2-chlorophenyl)amino)azetidine-1-carbonyl)cyclohexyl)oxy)-4-(4-methylthiazol-5-yl)benzyl)-4-hydroxy-1-(3-methyl-2-(3-methylisoxazol-5-yl)butanoyl)pyrrolidine-2-carboxamide] | 98.3 | 99.2
Cc1ncsc1-c1ccc(CNC(=O)[C@@H]2C[C@@H](O)CN2C(=O)[C@@H](NC(=O)C2(F)CC2)C(C)(C)C)c(OC2CCN(C(=O)CC3CN(c4nccc(Sc5cnc(N6CCC(C)(CN)CC6)cn5)c4Cl)C3)CC2)c1 [Example 64, (2S,4R)—N-(2-((1-(2-(1-(4-((5-(4-(aminomethyl)-4-methylpiperidin-1-yl)pyrazin-2-yl)thio)-3-chloropyridin-2-yl)azetidin-3-yl)acetyl)piperidin-4-yl)oxy)-4-(4-methylthiazol-5-yl)benzyl)-1-((S)-2-(1-fluorocyclopropane-1-carboxamido)-3,3-dimethylbutanoyl)-4-hydroxypyrrolidine-2-carboxamide] | 87.9 | 99.8
Cc1cn([C@H](C(=O)N2C[C@H](O)C[C@H]2C(=O)NCc2ccc(-c3scnc3C)cc2OC2CCN(C(=O)C3CCN(c4nccc(Sc5cnc(N6CCC(C)(N)CC6)c(CO)n5)c4Cl)CC3)CC2)C(C)C)nn1 [Example 109, (2S,4R)—N-(2-((1-(1-(4-((5-(4-amino-4-methylpiperidin-1-yl)-6-(hydroxymethyl)pyrazin-2-yl)thio)-3-chloropyridin-2-yl)piperidine-4-carbonyl)piperidin-4-yl)oxy)-4-(4-methylthiazol-5-yl)benzyl)-4-hydroxy-1-((S)-3-methyl-2-(4-methyl-1H-1,2,3-triazol-1-yl)butanoyl)pyrrolidine-2-carboxamide] | 99.0 | 99.4
Cc1ncsc1-c1ccc(CNC(=O)[C@@H]2C[C@@H](O)CN2C(=O)[C@H](C(C)C)n2cc(C3CC3)nn2)c(OC2CCN(C(=O)C3CCN(c4nccc(Sc5cnc(N6CCC(C)(CN)CC6)c(CO)n5)c4Cl)CC3)CC2)c1 [Example 104, (2S,4R)—N-(2-((1-(1-(4-((5-(4-(aminomethyl)-4-methylpiperidin-1-yl)-6-(hydroxymethyl)pyrazin-2-yl)thio)-3-chloropyridin-2-yl)piperidine-4-carbonyl)piperidin-4-yl)oxy)-4-(4-methylthiazol-5-yl)benzyl)-1-((S)-2-(4-cyclopropyl-1H-1,2,3-triazol-1-yl)-3-methylbutanoyl)-4-hydroxypyrrolidine-2-carboxamide] | 98.6 | 98.0
CC(=O)N[C@H](C(=O)N1C[C@H](O)C[C@H]1C(=O)NCc1ccc(-c2scnc2C)cc1OC1CCN(C(=O)C2CCN(c3nccc(Sc4nc(CO)c(N5CCC(C)(CN)CC5)nc4C)c3Cl)CC2)CC1)C(C)(C)C [Example 81, (2S,4R)-1-((S)-2-acetamido-3,3-dimethylbutanoyl)-N-(2-((1-(1-(4-((5-(4-(aminomethyl)-4-methylpiperidin-1-yl)-6-(hydroxymethyl)-3-methylpyrazin-2-yl)thio)-3-chloropyridin-2-yl)piperidine-4-carbonyl)piperidin-4-yl)oxy)-4-(4-methylthiazol-5-yl)benzyl)-4-hydroxypyrrolidine-2-carboxamide] | 85.6 | 99.6
Cc1ncsc1-c1ccc(CNC(=O)[C@@H]2C[C@@H](O)CN2C(=O)[C@@H](n2cc(C3CC3)nn2)C(C)(C)C)c(OC2CCN(C(=O)C3CCN(c4nccc(Sc5cnc(N6CCC(C)(CN)CC6)cn5)c4Cl)CC3)CC2)c1 [Example 107, (2S,4R)—N-(2-((1-(1-(4-((5-(4-(aminomethyl)-4-methylpiperidin-1-yl)pyrazin-2-yl)thio)-3-chloropyridin-2-yl)piperidine-4-carbonyl)piperidin-4-yl)oxy)-4-(4-methylthiazol-5-yl)benzyl)-1-((S)-2-(4-cyclopropyl-1H-1,2,3-triazol-1-yl)-3,3-dimethylbutanoyl)-4-hydroxypyrrolidine-2-carboxamide] | 96.5 | 99.2
CC(=O)N[C@H](C(=O)N1C[C@H](O)C[C@H]1C(=O)NCc1ccc(-c2scnc2C)cc1OC1CCN(C(=O)C2CCN(c3nccc(Sc4cnc(N5CCC(C)(CN)CC5)cn4)c3Cl)CC2)CC1)C(C)C [Example 90, (2S,4R)-1-(acetyl-L-valyl)-N-(2-((1-(1-(4-((5-(4-(aminomethyl)-4-methylpiperidin-1-yl)pyrazin-2-yl)thio)-3-chloropyridin-2-yl)piperidine-4-carbonyl)piperidin-4-yl)oxy)-4-(4-methylthiazol-5-yl)benzyl)-4-hydroxypyrrolidine-2-carboxamide] | 70.5 | 99.2
CC(=O)N[C@H](C(=O)N1C[C@H](O)C[C@H]1C(=O)NCc1ccc(-c2scnc2C)cc1O[C@H]1CC[C@H](C(=O)N2CCC(Nc3nccc(Sc4cnc(N5CCC(C)(N)CC5)cn4)c3Cl)CC2)CC1)C(C)(C)C [Example 42, (2S,4R)-1-((S)-2-acetamido-3,3-dimethylbutanoyl)-N-(2-(((1R,4S)-4-(4-((4-((5-(4-amino-4-methylpiperidin-1-yl)pyrazin-2-yl)thio)-3-chloropyridin-2-yl)amino)piperidine-1-carbonyl)cyclohexyl)oxy)-4-(4-methylthiazol-5-yl)benzyl)-4-hydroxypyrrolidine-2-carboxamide] | 95.2 | 98.7
CC(=O)N[C@H](C(=O)N1C[C@H](O)C[C@H]1C(=O)NCc1ccc(-c2scnc2C)cc1O[C@H]1CC[C@H](C(=O)N2CC(Nc3cccc(Sc4cnc(N5CCC6(CC5)Cc5ncccc5[C@H]6N)cn4)c3Cl)C2)CC1)C(C)(C)C [Example 31, (2S,4R)-1-((S)-2-acetamido-3,3-dimethylbutanoyl)-N-(2-(((1R,4S)-4-(3-((3-((5-((S)-5-amino-5,7-dihydrospiro[cyclopenta[b]pyridine-6,4′-piperidin]-1′-yl)pyrazin-2-yl)thio)-2-chlorophenyl)amino)azetidine-1-carbonyl)cyclohexyl)oxy)-4-(4-methylthiazol-5-yl)benzyl)-4-hydroxypyrrolidine-2-carboxamide] | 76.3 | 99.4
